What all share (format): cell-based
One assay concerns A431 cells. The assay is described as follows: Cellular proliferation (Alamar Blue) assay, A431. Conditions: Homo sapiens, A-431; A431 cells, Alamar Blue, 72 hr; read-out: A431 IC50. Background: Alamar Blue is a resazurin reagent that responds to reducing activity.
Assay [1] concerns the target EGFR (A767_dupASV) expressing Ba/F3 stable cell line (Homo sapiens, UniProt P00533, DUP767-769, cells depend on it). The assay is described as follows: Cellular proliferation (Alamar Blue) assay, EGFR A767_dupASV Ba/F3. Conditions: 72 hr, read-out: A767 IC50. The procedure, abridged:
(§1)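 Alamar Blue read-out, 3 h at 37 °C, after 72 hr compound exposure of Ba/F3 transfectants (15,000 cells/well, RPMI + 10% FBS, plated 16-18 h earlier).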

Assay [2] addresses EGFR (H773insNPH) expressing Ba/F3 stable cell line (Homo sapiens, UniProt P00533, DUP771-773, cells depend on it). The assay is described as follows: Cellular proliferation (Alamar Blue) assay, EGFR H773insNPH Ba/F3. Conditions: 72 hr, read-out: NPH IC50. The essentials: as §1
The target of assay [3] is EGFR(D770_N771insSVD) expressing Ba/F3 stable cell line (Homo sapiens, UniProt P00533, DUP768-770, cells depend on it). Kind of assay: Cellular proliferation (Alamar Blue) assay, EGFR D770_N771insSVD Ba/F3. Conditions: 72 hr, read-out: D770 IC50. The essentials: as §1
EGFR(D770_N771insSVD) expressing Ba/F3 stable cell line, sequence (P00533 with tags, fused parts or gaps DUP768-770): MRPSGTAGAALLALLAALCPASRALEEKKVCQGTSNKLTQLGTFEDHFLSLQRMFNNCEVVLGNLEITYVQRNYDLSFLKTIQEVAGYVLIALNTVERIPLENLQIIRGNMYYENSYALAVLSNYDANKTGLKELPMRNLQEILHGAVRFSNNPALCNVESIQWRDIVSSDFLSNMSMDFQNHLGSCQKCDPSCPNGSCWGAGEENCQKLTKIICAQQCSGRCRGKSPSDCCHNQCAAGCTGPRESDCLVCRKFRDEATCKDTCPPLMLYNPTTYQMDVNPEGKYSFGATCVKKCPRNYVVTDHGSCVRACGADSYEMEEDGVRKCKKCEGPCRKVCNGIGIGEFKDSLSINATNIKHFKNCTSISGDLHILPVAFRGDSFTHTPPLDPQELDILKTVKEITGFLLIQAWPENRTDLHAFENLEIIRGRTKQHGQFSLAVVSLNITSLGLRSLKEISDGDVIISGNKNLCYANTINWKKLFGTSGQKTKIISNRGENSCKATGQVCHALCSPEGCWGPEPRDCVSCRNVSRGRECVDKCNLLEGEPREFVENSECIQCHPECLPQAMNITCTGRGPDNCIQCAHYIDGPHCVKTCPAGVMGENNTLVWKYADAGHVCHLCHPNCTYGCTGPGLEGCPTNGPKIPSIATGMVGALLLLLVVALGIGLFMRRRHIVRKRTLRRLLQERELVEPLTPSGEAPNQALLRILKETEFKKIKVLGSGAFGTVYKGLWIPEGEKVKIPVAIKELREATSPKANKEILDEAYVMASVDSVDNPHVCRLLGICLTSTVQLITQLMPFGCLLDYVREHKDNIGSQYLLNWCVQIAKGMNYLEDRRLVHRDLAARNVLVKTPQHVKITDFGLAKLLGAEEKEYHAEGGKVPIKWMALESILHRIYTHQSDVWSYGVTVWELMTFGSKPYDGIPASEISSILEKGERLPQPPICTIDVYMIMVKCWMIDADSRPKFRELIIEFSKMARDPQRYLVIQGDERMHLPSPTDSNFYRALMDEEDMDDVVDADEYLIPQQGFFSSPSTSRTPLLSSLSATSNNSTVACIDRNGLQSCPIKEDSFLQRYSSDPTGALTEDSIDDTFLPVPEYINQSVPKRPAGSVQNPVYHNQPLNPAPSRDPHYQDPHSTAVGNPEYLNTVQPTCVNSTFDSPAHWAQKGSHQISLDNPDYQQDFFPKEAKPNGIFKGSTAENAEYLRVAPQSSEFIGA
Assay [4] concerns the target HER2 (A775_G776insYVMA) expressing Ba/F3 stable cell line (Homo sapiens, UniProt P04626, DUP772-775, cells depend on it). The assay is described as follows: Cellular proliferation (Alamar Blue) assay, HER2 A775_G776insYVMA Ba/F3. Conditions: 72 hr, read-out: YVMA IC50. The procedure, abridged: as §1

HER2 (A775_G776insYVMA) expressing Ba/F3 stable cell line, sequence (P04626 with tags, fused parts or gaps DUP772-775): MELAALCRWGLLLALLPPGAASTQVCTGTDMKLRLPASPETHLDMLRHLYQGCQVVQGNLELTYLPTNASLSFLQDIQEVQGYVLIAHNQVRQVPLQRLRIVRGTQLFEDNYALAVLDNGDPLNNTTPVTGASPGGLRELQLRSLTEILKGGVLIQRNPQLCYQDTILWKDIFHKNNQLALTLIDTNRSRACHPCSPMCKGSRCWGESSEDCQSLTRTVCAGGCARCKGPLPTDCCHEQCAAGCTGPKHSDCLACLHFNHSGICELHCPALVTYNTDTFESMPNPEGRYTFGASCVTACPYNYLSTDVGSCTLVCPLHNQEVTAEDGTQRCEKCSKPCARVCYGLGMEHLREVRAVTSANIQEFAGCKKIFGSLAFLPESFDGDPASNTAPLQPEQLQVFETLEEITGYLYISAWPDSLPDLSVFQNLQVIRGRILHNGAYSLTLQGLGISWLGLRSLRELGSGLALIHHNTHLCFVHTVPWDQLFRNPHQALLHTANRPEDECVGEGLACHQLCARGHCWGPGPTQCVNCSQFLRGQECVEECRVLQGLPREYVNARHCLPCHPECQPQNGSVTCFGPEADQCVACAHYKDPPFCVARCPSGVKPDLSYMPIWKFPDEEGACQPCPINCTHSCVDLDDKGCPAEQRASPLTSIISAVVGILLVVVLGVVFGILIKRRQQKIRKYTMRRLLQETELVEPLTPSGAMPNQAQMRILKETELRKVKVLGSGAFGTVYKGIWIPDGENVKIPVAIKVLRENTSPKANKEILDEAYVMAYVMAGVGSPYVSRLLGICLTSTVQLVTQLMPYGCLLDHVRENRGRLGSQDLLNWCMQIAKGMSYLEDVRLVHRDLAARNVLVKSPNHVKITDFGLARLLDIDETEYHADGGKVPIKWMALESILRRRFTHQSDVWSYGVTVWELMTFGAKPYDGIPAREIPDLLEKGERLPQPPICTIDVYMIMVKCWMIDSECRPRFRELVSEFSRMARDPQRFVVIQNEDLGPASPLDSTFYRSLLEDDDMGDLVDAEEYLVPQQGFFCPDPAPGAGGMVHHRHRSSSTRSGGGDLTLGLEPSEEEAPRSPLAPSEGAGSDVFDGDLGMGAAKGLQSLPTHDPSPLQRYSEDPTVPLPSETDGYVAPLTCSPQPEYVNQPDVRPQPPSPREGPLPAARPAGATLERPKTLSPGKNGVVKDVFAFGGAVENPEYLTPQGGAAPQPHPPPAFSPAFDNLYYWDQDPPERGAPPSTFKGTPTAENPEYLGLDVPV
EGFR (H773insNPH) expressing Ba/F3 stable cell line, sequence (P00533 with tags, fused parts or gaps DUP771-773): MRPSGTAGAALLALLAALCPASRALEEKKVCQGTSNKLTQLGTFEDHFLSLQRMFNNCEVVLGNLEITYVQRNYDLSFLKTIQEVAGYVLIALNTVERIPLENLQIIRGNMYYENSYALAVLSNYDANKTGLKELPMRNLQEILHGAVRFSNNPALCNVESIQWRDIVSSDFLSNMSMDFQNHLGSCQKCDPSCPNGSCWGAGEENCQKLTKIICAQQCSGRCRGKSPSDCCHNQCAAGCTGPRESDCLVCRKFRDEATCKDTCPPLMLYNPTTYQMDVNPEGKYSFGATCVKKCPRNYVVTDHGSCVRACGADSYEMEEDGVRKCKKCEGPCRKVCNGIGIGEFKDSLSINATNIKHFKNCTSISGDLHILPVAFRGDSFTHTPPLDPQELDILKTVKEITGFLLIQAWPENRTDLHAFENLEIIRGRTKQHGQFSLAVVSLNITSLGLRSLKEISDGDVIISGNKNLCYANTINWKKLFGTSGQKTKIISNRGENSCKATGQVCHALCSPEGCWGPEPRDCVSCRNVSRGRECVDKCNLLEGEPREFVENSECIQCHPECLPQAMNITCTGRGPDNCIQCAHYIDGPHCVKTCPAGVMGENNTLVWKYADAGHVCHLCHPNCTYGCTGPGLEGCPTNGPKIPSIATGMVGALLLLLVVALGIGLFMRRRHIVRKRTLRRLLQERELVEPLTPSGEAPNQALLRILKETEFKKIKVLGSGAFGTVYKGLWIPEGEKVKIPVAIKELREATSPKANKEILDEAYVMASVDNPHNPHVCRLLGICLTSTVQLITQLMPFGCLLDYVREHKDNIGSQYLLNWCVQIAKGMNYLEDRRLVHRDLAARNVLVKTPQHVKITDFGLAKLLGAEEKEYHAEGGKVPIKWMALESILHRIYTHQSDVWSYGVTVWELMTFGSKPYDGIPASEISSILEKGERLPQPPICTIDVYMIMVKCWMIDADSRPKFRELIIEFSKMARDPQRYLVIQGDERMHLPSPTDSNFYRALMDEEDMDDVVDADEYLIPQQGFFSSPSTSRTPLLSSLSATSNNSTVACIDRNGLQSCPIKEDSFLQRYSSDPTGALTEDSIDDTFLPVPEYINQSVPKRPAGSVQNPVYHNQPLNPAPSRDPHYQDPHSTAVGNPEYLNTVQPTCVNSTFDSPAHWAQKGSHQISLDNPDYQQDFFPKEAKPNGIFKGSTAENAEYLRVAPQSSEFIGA
EGFR (A767_dupASV) expressing Ba/F3 stable cell line, sequence (P00533 with tags, fused parts or gaps DUP767-769): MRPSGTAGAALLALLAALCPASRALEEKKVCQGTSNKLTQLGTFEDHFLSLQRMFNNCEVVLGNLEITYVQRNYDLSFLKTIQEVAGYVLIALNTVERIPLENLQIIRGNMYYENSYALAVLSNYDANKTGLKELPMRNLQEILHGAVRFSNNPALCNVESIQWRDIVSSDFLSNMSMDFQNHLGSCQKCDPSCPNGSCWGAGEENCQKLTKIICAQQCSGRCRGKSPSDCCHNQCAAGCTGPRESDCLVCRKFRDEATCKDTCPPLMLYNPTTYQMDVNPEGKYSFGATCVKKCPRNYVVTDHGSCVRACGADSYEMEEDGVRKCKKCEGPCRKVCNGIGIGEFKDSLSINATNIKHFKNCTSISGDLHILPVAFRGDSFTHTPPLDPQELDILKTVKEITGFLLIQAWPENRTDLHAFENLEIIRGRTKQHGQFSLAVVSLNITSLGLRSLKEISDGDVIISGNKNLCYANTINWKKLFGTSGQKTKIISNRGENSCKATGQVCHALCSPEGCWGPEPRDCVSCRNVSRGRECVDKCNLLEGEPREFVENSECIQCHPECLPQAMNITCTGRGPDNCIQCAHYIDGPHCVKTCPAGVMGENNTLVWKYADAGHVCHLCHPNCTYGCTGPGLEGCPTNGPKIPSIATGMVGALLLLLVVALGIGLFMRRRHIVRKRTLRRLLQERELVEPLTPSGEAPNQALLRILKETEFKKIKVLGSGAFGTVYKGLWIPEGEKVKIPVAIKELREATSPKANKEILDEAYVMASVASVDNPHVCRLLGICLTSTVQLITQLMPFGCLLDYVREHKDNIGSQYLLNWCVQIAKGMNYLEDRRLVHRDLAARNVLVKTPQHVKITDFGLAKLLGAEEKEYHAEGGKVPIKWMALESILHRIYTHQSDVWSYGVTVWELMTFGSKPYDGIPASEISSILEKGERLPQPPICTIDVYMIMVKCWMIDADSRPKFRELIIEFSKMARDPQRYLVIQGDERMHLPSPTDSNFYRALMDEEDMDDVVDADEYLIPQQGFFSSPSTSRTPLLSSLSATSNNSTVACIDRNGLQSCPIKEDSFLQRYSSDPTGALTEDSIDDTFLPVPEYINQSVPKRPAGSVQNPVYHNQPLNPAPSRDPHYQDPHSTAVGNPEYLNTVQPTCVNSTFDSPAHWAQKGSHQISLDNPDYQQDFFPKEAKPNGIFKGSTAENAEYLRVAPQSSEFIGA

The IC50 is the concentration that inhibits the measured activity by half. Take `C=CC(=O)Nc1ccc(F)c(Nc2nc(Nc3cnn(C4CCN(C)CC4)c3)ncc2-c2ccc(C(F)(F)F)cc2)c1` [Compound 85, N-(4-fluoro-3-((2-((1-(1-methylpiperidin-4-yl)-1H-pyrazol-4-yl)amino)-5-(4-(trifluoromethyl)phenyl)pyrimidin-4-yl)amino)phenyl)acrylamide]: the IC50 in the assay on A431 cells worked out at 5.44 µM. The GI50 in assay [1] is 0.249 µM; in assay [2], 0.119 µM; in assay [3] it was 0.109 µM; in assay [4] it was 0.378 µM.
As to `C=CC(=O)Nc1ccc(F)c(Nc2nc(Nc3cn(C)nc3F)ncc2-c2ccc(C(F)(F)F)cc2)c1` [Compound 87, N-(4-fluoro-3-((2-((3-fluoro-1-methyl-1H-pyrazol-4-yl)amino)-5-(4-(trifluoromethyl)phenyl)pyrimidin-4-yl)amino)phenyl)acrylamide], the concentration for half-maximal inhibition (IC50) with A431 cells was determined as 0.097 µM. The GI50 in assay [1] worked out at 0.239 µM; in assay [2] it was 0.234 µM; in assay [3] it was 0.171 µM; in assay [4], 0.413 µM.
The like results for `C=CC(=O)Nc1ccc(F)c(Nc2nc(Nc3cnn(C)c3)ncc2-c2cccc(F)c2)c1` [Compound 88, N-(4-fluoro-3-((5-(3-fluorophenyl)-2-((1-methyl-1H-pyrazol-4-yl)amino)pyrimidin-4-yl)amino)phenyl)acrylamide] were, in that order, 0.929 µM, 0.048 µM, 0.049 µM, 0.035 µM and 0.198 µM.
The like results for `C=CC(=O)Nc1ccc(F)c(Nc2nc(Nc3cnn(C)c3)ncc2-c2cccc(C(F)(F)F)c2)c1` [Compound 89, N-[4-fluoro-3-({2-[(1-methyl-1H-pyrazol-4-yl)amino]-5-[3-(trifluoromethyl)phenyl]pyrimidin-4-yl}amino)phenyl]prop-2-enamide] were, in that order, 0.084 µM, 0.106 µM, 0.058 µM, 0.101 µM and 0.665 µM.
The like results for `C=CC(=O)Nc1ccc(F)c(Nc2nc(Nc3cnn(C)c3)ncc2-c2ccccc2F)c1` [Compound 90, N-(4-fluoro-3-((5-(2-fluorophenyl)-2-((1-methyl-1H-pyrazol-4-yl)amino)pyrimidin-4-yl)amino)phenyl)acrylamide] were, in that order, 0.32 µM, 0.237 µM, 0.103 µM, 0.103 µM and 0.358 µM.
`C=CC(=O)Nc1ccc(F)c(Nc2nc(Nc3cnn(C)c3)ncc2-c2ccc(OC)cc2)c1` [Compound 91, N-(4-fluoro-3-((5-(4-methoxyphenyl)-2-((1-methyl-1H-pyrazol-4-yl)amino)pyrimidin-4-yl)amino)phenyl)acrylamide]: the IC50 with A431 cells was 0.95 µM. For the same compound, the GI50 is 0.108 µM in assay [1], 0.091 µM in assay [2], 0.062 µM in assay [3] and 0.479 µM in assay [4].
For `C=CC(=O)Nc1ccc(F)c(Nc2nc(Nc3cnn(C)c3)ncc2-c2ccc(OC(F)(F)F)cc2)c1` [Compound 92, N-(4-fluoro-3-((2-((1-methyl-1H-pyrazol-4-yl)amino)-5-(4-(trifluoromethoxy)phenyl)pyrimidin-4-yl)amino)phenyl)acrylamide] the same measures were 0.133 µM, 0.075 µM, 0.089 µM, 0.102 µM and 0.612 µM.
For `C=CC(=O)Nc1ccc(F)c(Nc2nc(Nc3cnn(C)c3)ncc2-c2ccccc2)c1` [Compound 93, N-(4-fluoro-3-((2-((1-methyl-1H-pyrazol-4-yl)amino)-5-phenylpyrimidin-4-yl)amino)phenyl)acrylamide] the same measures were greater than 10 µM, 0.315 µM, 0.148 µM, 0.121 µM and 0.465 µM.
The like results for `C=CC(=O)Nc1ccc(F)c(Nc2nc(Nc3cnn(C)c3)ncc2-c2ccc(N3CCOCC3)cc2)c1` [Compound 94, N-(4-fluoro-3-((2-((1-methyl-1H-pyrazol-4-yl)amino)-5-(4-morpholinophenyl)pyrimidin-4-yl)amino)phenyl)acrylamide] were, in that order, greater than 10 µM, 0.109 µM, 0.448 µM, 0.542 µM and 1.27 µM.
In the case of `C=CC(=O)Nc1ccc(F)c(Nc2nc(Nc3cnn(C)c3)ncc2-c2cncc(OC(F)F)c2)c1` [Compound 95, N-(3-((5-(5-(difluoromethoxy)pyridin-3-yl)-2-((1-methyl-1H-pyrazol-4-yl)amino)pyrimidin-4-yl)amino)-4-fluorophenyl)acrylamide], the concentration for half-maximal inhibition (IC50) in the assay on A431 cells came to 0.102 µM. For the same compound, the GI50 in assay [1] is 0.027 µM; in assay [2], 0.045 µM; in assay [3], 0.038 µM; in assay [4] it was 0.101 µM.
The like results for `C=CC(=O)Nc1ccc(F)c(Nc2nc(Nc3cnn(C)c3)ncc2-c2ccc(C(F)F)cc2)c1` [Compound 99, N-(3-((5-(4-(difluoromethyl)phenyl)-2-((1-methyl-1H-pyrazol-4-yl)amino)pyrimidin-4-yl)amino)-4-fluorophenyl)acrylamide] were, in that order, 0.067 µM, 0.096 µM, 0.075 µM, 0.037 µM and 0.171 µM.
The like results for `C=CC(=O)Nc1ccc(F)c(Nc2nc(Nc3cnn(C)c3)ncc2-c2ccc(F)nc2)c1` [Compound 100, N-(4-fluoro-3-((5-(6-fluoropyridin-3-yl)-2-((1-methyl-1H-pyrazol-4-yl)amino)pyrimidin-4-yl)amino)phenyl)acrylamide] were, in that order, 0.472 µM, 0.072 µM, 0.053 µM, 0.038 µM and 0.203 µM.
The like results for `C=CC(=O)Nc1ccc(F)c(Nc2nc(Nc3cnn(C)c3)ncc2-c2ccc(N(C)C)cc2)c1` [Compound 103, N-(3-((5-(4-(dimethylamino)phenyl)-2-((1-methyl-1H-pyrazol-4-yl)amino)pyrimidin-4-yl)amino)-4-fluorophenyl)acrylamide] were, in that order, 0.493 µM, 0.287 µM, 0.281 µM, 0.157 µM and 0.461 µM.
Take `C=CC(=O)Nc1cccc(Oc2nc(Nc3cnn(C)c3)ncc2-c2cncc(C(F)(F)F)c2)c1` [Compound 104, N-(3-((2-((1-methyl-1H-pyrazol-4-yl)amino)-5-(5-(trifluoromethyl)pyridin-3-yl)pyrimidin-4-yl)oxy)phenyl)acrylamide]: the IC50 with A431 cells worked out at 1.12 µM. For the same compound, the GI50 was determined as 0.104 µM in assay [1], 0.101 µM in assay [2], 0.107 µM in assay [3] and 0.115 µM in assay [4].
Regarding `C=CC(=O)Nc1cccc(Oc2nc(Nc3cnn(C)c3)ncc2-c2ccc(C(F)F)cc2)c1` [Compound 105, N-(3-((5-(4-(difluoromethyl)phenyl)-2-((1-methyl-1H-pyrazol-4-yl)amino)pyrimidin-4-yl)oxy)phenyl)acrylamide], the IC50 in the assay on A431 cells amounted to 0.171 µM. Further, the GI50 in assay [1] was found to be 0.049 µM; in assay [2], 0.075 µM; in assay [3], 0.037 µM; in assay [4], 0.105 µM.
The like results for `C=CC(=O)Nc1ccc(F)c(Nc2nc(Nc3cnn(C)c3)ncc2-c2ccc(C(F)F)nc2)c1` [Compound 106, N-(3-((5-(6-(difluoromethyl)pyridin-3-yl)-2-((1-methyl-1H-pyrazol-4-yl)amino)pyrimidin-4-yl)amino)-4-fluorophenyl)acrylamide] were, in that order, 0.094 µM, 0.035 µM, 0.025 µM, 0.016 µM and 0.038 µM.
The like results for `C=CC(=O)Nc1cccc(Oc2nc(Nc3cnn(C)c3)ncc2-c2ccc(C(F)(F)F)nc2)c1` [Compound 108, N-(3-((2-((1-methyl-1H-pyrazol-4-yl)amino)-5-(6-(trifluoromethyl)pyridin-3-yl)pyrimidin-4-yl)oxy)phenyl)acrylamide] were, in that order, 0.341 µM, 0.056 µM, 0.294 µM, 0.104 µM and 0.3 µM.
For `C=CC(=O)Nc1cccc(Oc2nc(Nc3cnn(C)c3)ncc2-c2ccc(F)nc2)c1` [Compound 109, N-(3-((5-(6-fluoropyridin-3-yl)-2-((1-methyl-1H-pyrazol-4-yl)amino)pyrimidin-4-yl)oxy)phenyl)acrylamide] the same measures were 0.613 µM, 0.053 µM, 0.112 µM, 0.1 µM and 0.344 µM.
`C=CC(=O)Nc1cccc(Nc2nc(Nc3cnn(C)c3)ncc2-c2ccc(C(F)(F)F)cc2)c1` [Compound 111, N-(3-((2-((1-methyl-1H-pyrazol-4-yl)amino)-5-(4-(trifluoromethyl)phenyl)pyrimidin-4-yl)amino)phenyl)acrylamide]: the IC50 in the assay with A431 cells stood at 0.027 µM. Besides, the GI50 in assay [1] amounted to 0.041 µM; in assay [2] it was 0.103 µM; in assay [3] it was 0.048 µM; in assay [4], 0.138 µM.

For the origin of these results see patent US12686673B2 (Blueprint Medicines Corporation, priority 2020, dated 2026).
